Reference: the supplement of paper PMC9663587

Tests used:
[1] = compound: CN(C)CC[C@H](CSc1ccccc1)Nc1ccc(S(=O)(=O)NC(=O)c2ccc(N3CCN(Cc4ccccc4-c4ccc(Cl)cc4)CC3)cc2)cc1[N+](=O)[O-] [ABT-737]
[2] = compound: Cc1nc(NC(=O)N2CCC[C@H]2C(N)=O)sc1-c1ccnc(C(C)(C)C(F)(F)F)c1 [Alpelisib/BYL719]
[3] = compound: COc1cc2nccc(Oc3ccc(NC(=O)C4(C(=O)Nc5ccc(F)cc5)CC4)cc3)c2cc1OC [Cabozantinib]
[4] = compound: CN(C)C(=O)c1cc2cnc(Nc3ccc(N4CCNCC4)cn3)nc2n1C1CCCC1 [LEE011/Ribociclib]
[5] = compound: COc1ccc2c(c1)[C@]1(C[C@H]1c1ccc3c(/C=C/c4ccc(CN5C[C@@H](C)O[C@@H](C)C5)cc4)n[nH]c3c1)C(=O)N2
[6] = compound: CC(C)NC[C@@H](C(=O)N1CCN(c2ncnc3c2[C@H](C)C[C@H]3O)CC1)c1ccc(Cl)cc1 [Ipatasertib/GDC0068]
[7] = compound: CCCCOc1c(C(=O)c2c(F)cc(C)cc2F)c[nH]c2nncc1-2
[8] = compound: CCOc1cc2ncc(C#N)c(Nc3ccc(OCc4ccccn4)c(Cl)c3)c2cc1NC(=O)/C=C/CN(C)C [Neratinib/HKI272]
[9] = compound: C1=CC2=C(C=CC(=C2)C=C3C(=O)NC(=NCC4=CC=CS4)S3)N=C1 [R0-3306]
[10] = compound: NC1(C(=O)N[C@@H](CCO)c2ccc(Cl)cc2)CCN(c2nc[nH]c3nccc2-3)CC1 [AZD5363]
[11] = compound: CN(C)C/C=C/C(=O)NC1=CC=C(C=C1)C(=O)NC2=CC=CC(=C2)NC3=NC=NC(=C3)C4=CNC5=CC=CC=C54 [THZ-P1-2]
[12] = compound: CC[C@@H]1C(=O)N(C)c2cnc(Nc3ccc(C(=O)N[C@H]4CC[C@H](N5CCN(CC6CC6)CC5)CC4)cc3OC)nc2N1C(C)C [Volasertib/BI6727]
[13] = compound: CC(=O)c1c(C)c2cnc(Nc3ccc(N4CCN(CCOCCOCCOCCNC(=O)COc5cccc6c5C(=O)N(C5CCC(=O)NC5=O)C6=O)CC4)cn3)nc2n(C2CCCC2)c1=O [BSJ-03-123]
[14] = compound: C=CCn1c(=O)c2cnc(Nc3ccc(N4CCN(C)CC4)cc3)nc2n1-c1cccc(C(C)(C)O)n1 [AZD1775]
[15] = compound: CCN1CCN(Cc2ccc(Nc3ncc(F)c(-c4cc(F)c5nc(C)n(C(C)C)c5c4)n3)nc2)CC1
[16] = compound: CO[C@@H](C)Cn1c(=O)n(C)c2cnc3ccc(-c4cncc(C(C)(C)O)c4)cc3c21
[17] = compound: NC(=O)Nc1cc(-c2cccc(F)c2)sc1C(=O)N[C@H]1CCCNC1 [AZD7762]
[18] = compound: Cc1nc(Nc2ncc(C(=O)Nc3c(C)cccc3Cl)s2)cc(N2CCN(CCO)CC2)n1 [Dasatinib]
[19] = compound: CCC1=CN=CN=C1N2CCN(CC2)CC3=NC4=C(N3)C=C(C=C4)C(F)(F)F
[20] = compound: CC(=O)c1c(C)c2cnc(Nc3ccc(N4CCNCC4)cn3)nc2n(C2CCCC2)c1=O
[21] = compound: COc1cccc2c1C(=O)c1c(O)c3c(c(O)c1C2=O)C[C@@](O)(C(=O)CO)C[C@@H]3O[C@H]1C[C@H](N)[C@H](O)[C@H](C)O1 [Doxorubicin]
[22] = compound: O=C(c1cc(Cc2n[nH]c(=O)c3ccccc23)ccc1F)N1CCN(C(=O)C2CC2)CC1 [Olaparib/AZD2281]
[23] = compound: CCc1cnn2c(NCc3ccc[n+]([O-])c3)cc(N3CCCC[C@H]3CCO)nc12
[24] = compound: CCNC(=O)c1noc(-c2cc(C(C)C)c(O)cc2O)c1-c1ccc(CN2CCOCC2)cc1 [Luminespib/NVP-AUY922]
[25] = compound: CC(=O)Nc1cccc(-n2c(=O)n(C3CC3)c(=O)c3c(Nc4ccc(I)cc4F)n(C)c(=O)c(C)c32)c1
[26] = compound: O=C(CCCCCCC(=O)Nc1ccccc1)NO [Vorinostat]
[27] = compound: Cc1nc(-c2cn3c(n2)-c2ccc(-c4cnn(C(C)(C)C(N)=O)c4)cc2OCC3)n(C(C)C)n1 [Taselisib/GDC0032]
[28] = compound: CC1(CCN(CC1)C2=CN=C(C(=N2)N)C3=C(C(=CC=C3)Cl)Cl)N [SHP099]
[29] = compound: CN(C)C/C=C/C(=O)Nc1ccc(C(=O)Nc2cccc(Nc3ncc(Cl)c(-c4c[nH]c5ccccc45)n3)c2)cc1 [THZ1]
[30] = compound: CN1CCN(CCOc2cc(OC3CCOCC3)c3c(Nc4c(Cl)ccc5c4OCO5)ncnc3c2)CC1 [Saracatinib/AZD0530]
[31] = compound: CNC(=O)c1cccc(-c2ccc3c(N4CCOC[C@@H]4C)nc(N4CCOC[C@@H]4C)nc3n2)c1 [AZD2014]
[32] = compound: C1=CC(=CC(=C1)N2C(=O)C=CC3=CN=C4C=CC(=CC4=C32)C5=CN=C(C=C5)N)C(F)(F)F [Torin2]
[33] = compound: CN1CC[C@H](c2c(O)cc(O)c3c(=O)cc(-c4ccccc4Cl)oc23)[C@H](O)C1 [Flavopiridol]
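Note: breast cancer and non-malignant breast epithelial cell lines, Deep Dye Drop or Dye Drop imaging, nine half-log doses, GR normalized to time-zero plates and DMSO-only controls.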

Cell Line | GR50, 72 h [1] | GR50, 72 h [2] | GR50, 72 h [3] | GR50, 72 h [4] | GR50, 72 h [5] | GR50, 72 h [6] | GR50, 72 h [7] | GR50, 72 h [8] | GR50, 72 h [9] | GR50, 72 h [10] | GR50, 72 h [11] | GR50, 72 h [12] | GR50, 72 h [13] | GR50, 72 h [14] | GR50, 72 h [15] | GR50, 72 h [16] | GR50, 72 h [17] | GR50, 72 h [18] | GR50, 72 h [19] | GR50, 72 h [20] | GR50, 72 h [21] | GR50, 72 h [22] | GR50, 72 h [23] | GR50, 72 h [24] | GR50, 72 h [25] | GR50, 72 h [26] | GR50, 72 h [27] | GR50, 72 h [28] | GR50, 72 h [29] | GR50, 72 h [30] | GR50, 72 h [31] | GR50, 72 h [32] | GR50, 72 h [33]
PDX1258 | > 10 µM | > 10 µM | 8.59 µM | > 10 µM | 0.00294 µM | 4.37 µM | < 0.001 µM | 1.1 µM | 5.5 µM | 3.52 µM | 0.492 µM | 0.00743 µM | 4.91 µM | 0.0187 µM | 0.674 µM | 0.0944 µM | 0.0152 µM | 0.0216 µM | > 10 µM | > 3.16 µM | 0.00914 µM | > 10 µM | 0.0116 µM | 0.0101 µM | > 1 µM | 1.57 µM | 0.996 µM | > 10 µM | 0.0148 µM | 0.722 µM | 0.401 µM | 0.0356 µM | 0.0943 µM
PDXHCI002 | 5.62 µM | > 10 µM | 7.21 µM | > 10 µM | 0.00689 µM | > 10 µM | 3.29 µM | 0.162 µM | 6.43 µM | > 10 µM | > 10 µM | 0.00369 µM | 1.64 µM | 0.23 µM | 0.0484 µM | 1.82 µM | 0.0705 µM | 0.509 µM | > 10 µM | 0.127 µM | 0.00405 µM | 3.93 µM | 0.0122 µM | 0.00439 µM | > 1 µM | 0.282 µM | 0.6 µM | > 10 µM | 0.0115 µM | 0.0805 µM | 9.69 µM | 0.123 µM | 0.114 µM
SKBR3 | > 10 µM | 0.485 µM | 9.69 µM | 6.14 µM | 0.00188 µM | 3.32 µM | 0.0869 µM | 0.00165 µM | 4.77 µM | 2.76 µM | 4.25 µM | 0.00545 µM | 1.02 µM | 0.206 µM | 0.0353 µM | 0.00188 µM | 0.0203 µM | 3.65 µM | > 10 µM | 0.176 µM | 0.00673 µM | > 10 µM | 0.00682 µM | 0.00228 µM | > 1 µM | 0.767 µM | 0.00617 µM | > 10 µM | 0.014 µM | 4.92 µM | < 0.001 µM | 0.00361 µM | 0.132 µM
SUM52PE | 9.12 µM | 2.74 µM | 0.736 µM | > 10 µM | 0.00559 µM | 6.8 µM | 0.112 µM | 3.11 µM | 5.05 µM | 3.52 µM | 6.06 µM | 0.0198 µM | 3.42 µM | 4.37 µM | 0.376 µM | 0.0079 µM | 0.0752 µM | 0.238 µM | 8 µM | 0.564 µM | 0.049 µM | > 10 µM | 0.0196 µM | 0.00584 µM | > 1 µM | 4.26 µM | 0.0267 µM | > 10 µM | 0.0156 µM | 9.64 µM | 0.0163 µM | 0.0154 µM | 0.234 µM
SUM159 | > 10 µM | > 10 µM | 7.15 µM | 9.31 µM | 0.00426 µM | > 10 µM | 0.159 µM | > 3.16 µM | 7.13 µM | 9.8 µM | 6.79 µM | 0.0247 µM | 1.94 µM | 2.05 µM | 0.565 µM | 0.00127 µM | 0.834 µM | > 10 µM | > 10 µM | 1.73 µM | 0.021 µM | > 10 µM | 0.0169 µM | 0.00945 µM | 0.0316 µM | 3.28 µM | 0.182 µM | > 10 µM | 0.361 µM | > 10 µM | 0.176 µM | 0.0417 µM | 0.127 µM
SUM190PT | 0.362 µM | > 10 µM | 6.1 µM | 0.0246 µM | 0.00062 µM | > 10 µM | 0.0016 µM | 1.88 µM | 4.76 µM | 2.35 µM | 0.303 µM | 0.0086 µM | 0.0593 µM | 0.0515 µM | 0.0206 µM | < 0.001 µM | 0.0612 µM | 0.212 µM | 9.17 µM | 0.0436 µM | 0.025 µM | > 10 µM | 0.0215 µM | 0.00558 µM | > 1 µM | 0.402 µM | 0.962 µM | > 10 µM | 0.00565 µM | > 10 µM | 0.00932 µM | 0.00524 µM | 0.0802 µM
SUM229PE | 8.41 µM | > 10 µM | 6.79 µM | > 10 µM | 0.00229 µM | > 10 µM | 0.0124 µM | 0.419 µM | 6.23 µM | > 10 µM | 5.54 µM | 0.0135 µM | 1.64 µM | 0.00928 µM | 0.531 µM | 0.453 µM | 0.0909 µM | 0.094 µM | > 10 µM | 0.956 µM | 0.031 µM | > 10 µM | 0.0141 µM | 0.00595 µM | 0.00774 µM | 3.48 µM | 0.377 µM | > 10 µM | 0.0185 µM | 5.44 µM | 0.0116 µM | 0.0523 µM | 0.109 µM
